Measured values as given in patent US8324383B2, “Methods of making polymorphs of benzoate salt of 2-[[6-[(3R)-3-amino-1-piperidinyl]-3,4-dihydro-3-methyl-2,4-dioxo-1(2H)-pyrimidinyl]methyl]-benzonitrile” (Takeda Pharmaceutical Company Limited, priority 2006, dated 2012).
Entries after “also recorded” stand apart in the source; their conditions may differ. Structures can show the parent of a compound that is named as a salt. Where two headings read alike, the source gives them in different places.

Legend:
Type in all cases: physicochemical
[1] = Stress studies (relative humidity / temperature), solid form by XRPD; details: for Result (solid form by XRPD after stress): glassy material
Method: Vapor Stress (VS) Experiments: Form A was dispensed into a small vial, which was placed, uncapped, in a larger vial containing a diffusing solvent. The larger vial was sealed and stored at ambient temperature. Samples were also stressed in ovens at elevated temperatures and under different relative humidity conditions.
X-ray powder diffraction analyses were performed using a Shimadzu XRD-6000 X-ray powder diffractometer using Cu Kα radiation. The instrument is equipped with a long fine focus X-ray tube. The tube voltage and amperage were set to 40 kV and 40 mA, respectively. The divergence and scattering slits were set at 1° and the receiving slit was set at 0.15 mm. Diffracted radiation was detected by a NaI scintillation detector. A θ-2θ continuous scan at 3°/min (0.4 sec/0.02° step) from 2.5 to 40 °2θ was used. A silicon standard was analyzed to check the instrument alignment. Data were collected and analyzed using XRD-6000 v. 4.1. Samples were prepared for analysis by placing them in an aluminum holder with silicon insert.

[2] = Moisture sorption/desorption analysis (VTI SGA-100); details: for moisture sorption behaviour in words: moisture sorption/desorption analysis; for solid form of the sample after moisture sorption/desorption (XRPD): post moisture sorption/desorption sample
Method: Moisture sorption/desorption data were collected on a VTI SGA-100 Vapor Sorption Analyzer. Sorption and desorption data were collected over a range of 5% to 95% relative humidity (RH) at 10% RH intervals under a nitrogen purge. Samples were not dried prior to analysis. Equilibrium criteria used for analysis were less than 0.0100% weight change in 5 minutes, with a maximum equilibration time of 3 hours if the weight criterion was not met. Data were not corrected for the initial moisture content of the samples. NaCl and PVP were used as calibration standards.

[3] = Thermal analysis (DSC, TGA, melting point) - thermal stability; details: solid phase
Method: Differential scanning calorimetry was performed using a TA Instruments differential scanning calorimeter 2920. The sample was placed into an aluminum DSC pan, and the weight accurately recorded. The pan was covered with a lid and then crimped. The sample cell was equilibrated at ambient temperature and heated under a nitrogen purge at a rate of 10° C./min, up to a final temperature of 350° C. Indium metal was used as the calibration standard. Reported temperatures are at the transition maxima.
Thermogravimetric analyses were performed using a TA Instruments 2950 thermogravimetric analyzer. Each sample was placed in an aluminum sample pan and inserted into the TG furnace. The furnace was first equilibrated at ambient temperature, then heated under nitrogen at a rate of 10° C./min, up to a final temperature of 350° C. Nickel and Alumel™ were used as the calibration standards.
Hot stage microscopy was performed using a Linkam hot stage mounted on a Leica DM LP microscope. Samples were observed using a 20× objective with a lambda plate with crossed polarizers. Samples were sandwiched between two coverslips and visually observed as the stage was heated. Images were captured using a SPOT Insight™ color digital camera with SPOT Software v. 3.5.8. The hot stage was calibrated using sulfapyridine and vanillin USP melting point standards.

[4] = Solubility estimates in test solvents (aliquot addition, visual inspection); details: room temperature, approximate
Method: A weighed sample of Compound I was treated with aliquots of the test solvent at room temperature. The mixture was sonicated between aliquot additions to facilitate dissolution. Complete dissolution of the test material was determined by visual inspection. Solubilities were estimated from these experiments based on the total solvent used to provide complete dissolution. The actual solubility may be greater than those calculated because of the use of solvent aliquots that were too large or due to a slow rate of dissolution. […] If complete dissolution was achieved as a result of only one aliquot addition, the solubility is expressed as “greater than.”

Cn1c(=O)cc(N2CCC[C@@H](N)C2)n(Cc2ccccc2C#N)c1=O.O=C(O)c1ccccc1 [Compound 1924-83-05]
Result (solid form by XRPD after stress) ([1]; stress 40° C., 9 days): form A

Cn1c(=O)cc(N2CCC[C@@H](N)C2)n(Cc2ccccc2C#N)c1=O.O=C(O)c1ccccc1 [Compound 1924-83-06]
Result (solid form by XRPD after stress) ([1]; stress 79% RH/40° C., 9 days): form A

Cn1c(=O)cc(N2CCC[C@@H](N)C2)n(Cc2ccccc2C#N)c1=O.O=C(O)c1ccccc1 [Compound 1966-27-01]
Result (solid form by XRPD after stress) ([1]; stress 79% RH/60° C., 1 hr): form A

Cn1c(=O)cc(N2CCC[C@@H](N)C2)n(Cc2ccccc2C#N)c1=O.O=C(O)c1ccccc1 [Compound 1966-27-02]
Result (solid form by XRPD after stress) ([1]; stress 79% RH/60° C., 3 hrs): form A

Cn1c(=O)cc(N2CCC[C@@H](N)C2)n(Cc2ccccc2C#N)c1=O [Form A, benzoate salt of 2-[[6-[(3R)-3-amino-1-piperidinyl]-3,4-dihydro-3-methyl-2,4-dioxo-1(2H)-pyrimidinyl]methyl]-benzonitrile]
phase change upon RH stress (XRPD) ([1]; various RH conditions at room temperature, several weeks): none of these samples had undergone a phase change | Weight chg (%) ([2]; RH 5.18%, 25.20 °C, 14.1 min): 0.002% | weight loss ([2]; between 9% and 95% RH): about 0.05% | Weight chg (%) ([2]; desorption, RH 4.82%, 25.20 °C, 163.7 min): −0.004% | Weight chg (%) ([2]; desorption, RH 14.97%, 25.21 °C, 153.7 min): 0.032% | Weight chg (%) ([2]; desorption, RH 24.96%, 25.22 °C, 146.7 min): 0.035% | Weight chg (%) ([2]; desorption, RH 34.97%, 25.21 °C, 139.7 min): 0.008% | Weight chg (%) ([2]; desorption, RH 45.01%, 25.22 °C, 131.7 min): 0.012% | Weight chg (%) ([2]; desorption, RH 55.13%, 25.21 °C, 123.7 min): 0.014% | Weight chg (%) ([2]; desorption, RH 65.04%, 25.21 °C, 114.7 min): 0.016% | Weight chg (%) ([2]; desorption, RH 75.06%, 25.21 °C, 105.7 min): 0.017% | Weight chg (%) ([2]; desorption, RH 85.20%, 25.21 °C, 97.0 min): 0.019% | initial weight gain ([2]; from ambient conditions to 55% RH): approximately 0.035% | moisture sorption behaviour in words [2]: variable hydrate | solid form of the sample after moisture sorption/desorption (XRPD) [2]: form A | Weight chg (%) ([2]; sorption, RH 14.96%, 25.22 °C, 21.1 min): 0.001% | Weight chg (%) ([2]; sorption, RH 24.97%, 25.20 °C, 28.2 min): 0.001% | Weight chg (%) ([2]; sorption, RH 35.05%, 25.20 °C, 35.2 min): 0.002% | Weight chg (%) ([2]; sorption, RH 44.89%, 25.20 °C, 42.2 min): 0.004% | Weight chg (%) ([2]; sorption, RH 54.85%, 25.19 °C, 51.2 min): 0.035% | Weight chg (%) ([2]; sorption, RH 64.93%, 25.21 °C, 60.2 min): 0.039% | Weight chg (%) ([2]; sorption, RH 74.86%, 25.20 °C, 69.2 min): 0.041% | Weight chg (%) ([2]; sorption, RH 84.87%, 25.21 °C, 78.2 min): 0.045% | Weight chg (%) ([2]; sorption, RH 94.56%, 25.21 °C, 87.2 min): 0.049% | Weight chg (%) ([2]; start, RH 9.14%, 25.20 °C, 0.1 min): 0.000% | thermally stable (temperature) [3]: above 172 °C | solubility ([4]; ethanol, organic solvent or mixture, thermodynamic from solid, solvent EtOH, read-out: Solubility): < 3000 µg/mL | solubility ([4]; methanol, organic solvent or mixture, thermodynamic from solid, solvent MeOH, read-out: Solubility): 13000 µg/mL | solubility ([4]; organic solvent or mixture, thermodynamic from solid, solvent CAN, read-out: Solubility): < 1000 µg/mL | solubility ([4]; organic solvent or mixture, thermodynamic from solid, solvent CH2Cl2, read-out: Solubility): < 3000 µg/mL | solubility ([4]; organic solvent or mixture, thermodynamic from solid, solvent DMF, read-out: Solubility): 6000 µg/mL | solubility ([4]; organic solvent or mixture, thermodynamic from solid, solvent EtOAc, read-out: Solubility): < 3000 µg/mL | solubility ([4]; organic solvent or mixture, thermodynamic from solid, solvent IPA, read-out: Solubility): < 1000 µg/mL | solubility ([4]; organic solvent or mixture, thermodynamic from solid, solvent MEK, read-out: Solubility): 3000 µg/mL | solubility ([4]; organic solvent or mixture, thermodynamic from solid, solvent MIBK, read-out: Solubility): < 3000 µg/mL | solubility ([4]; organic solvent or mixture, thermodynamic from solid, solvent THF, read-out: Solubility): < 1000 µg/mL | solubility ([4]; organic solvent or mixture, thermodynamic from solid, solvent acetone, read-out: Solubility): < 3000 µg/mL | solubility ([4]; organic solvent or mixture, thermodynamic from solid, solvent dioxane, read-out: Solubility): < 1000 µg/mL | solubility ([4]; solvent CH2Cl2, listed as Compound I Form A): <3000 µg/mL | solubility ([4]; solvent EtOAc, listed as Compound I Form A): <3000 µg/mL | solubility ([4]; solvent EtOH, listed as Compound I Form A): <3000 µg/mL | solubility ([4]; solvent MIBK, listed as Compound I Form A): <3000 µg/mL | solubility ([4]; solvent acetone, listed as Compound I Form A): <3000 µg/mL | solubility ([4]; thermodynamic from solid, solvent water, read-out: Solubility): 8000 µg/mL

Cn1c(=O)cc(N2CCC[C@@H](N)C2)n(Cc2ccccc2C#N)c1=O [amorphous Form 1, benzoate salt of 2-[[6-[(3R)-3-amino-1-piperidinyl]-3,4-dihydro-3-methyl-2,4-dioxo-1(2H)-pyrimidinyl]methyl]-benzonitrile]
Weight chg (%) ([2]; Sample RH 5.25, 25.00 °C, 151.0 min): −0.953% | weight gain ([2]; between 5% and 95% RH): about 6.5% | weight loss ([2]; between 85% and 95% RH): about 5% | Weight chg (%) ([2]; desorption, Sample RH 5.06, 24.99 °C, 2238.3 min): −2.007% | Weight chg (%) ([2]; desorption, Sample RH 15.16, 24.99 °C, 2221.4 min): −1.980% | Weight chg (%) ([2]; desorption, Sample RH 24.87, 24.99 °C, 2199.9 min): −1.946% | Weight chg (%) ([2]; desorption, Sample RH 34.87, 24.99 °C, 2081.7 min): −1.737% | Weight chg (%) ([2]; desorption, Sample RH 45.08, 25.01 °C, 1894.1 min): −1.208% | Weight chg (%) ([2]; desorption, Sample RH 55.16, 25.00 °C, 1706.6 min): −0.421% | Weight chg (%) ([2]; desorption, Sample RH 65.12, 24.98 °C, 1517.0 min): 0.655% | Weight chg (%) ([2]; desorption, Sample RH 75.25, 24.98 °C, 1327.5 min): 1.908% | Weight chg (%) ([2]; desorption, Sample RH 85.49, 24.98 °C, 1139.9 min): 3.348% | initial weight loss ([2]; from ambient conditions to 5% RH): approximately 1% | moisture sorption behaviour in words [2]: very hygroscopic | solid form of the sample after moisture sorption/desorption (XRPD) [2]: matched form A; also recorded: tentatively identified as containing form A | Weight chg (%) ([2]; sorption, Sample RH 14.81, 25.00 °C, 197.3 min): −0.456% | Weight chg (%) ([2]; sorption, Sample RH 24.80, 24.99 °C, 253.1 min): 0.025% | Weight chg (%) ([2]; sorption, Sample RH 34.93, 24.98 °C, 329.5 min): 0.569% | Weight chg (%) ([2]; sorption, Sample RH 44.84, 24.99 °C, 508.3 min): 1.669% | Weight chg (%) ([2]; sorption, Sample RH 54.90, 24.98 °C, 603.1 min): 3.680% | Weight chg (%) ([2]; sorption, Sample RH 64.85, 24.97 °C, 655.1 min): 5.782% | Weight chg (%) ([2]; sorption, Sample RH 74.54, 24.98 °C, 723.7 min): 8.432% | Weight chg (%) ([2]; sorption, Sample RH 84.54, 24.98 °C, 764.6 min): 10.125% | Weight chg (%) ([2]; sorption, Sample RH 94.62, 24.95 °C, 952.3 min): 5.474% | Weight chg (%) ([2]; start, Sample RH 53.89, 24.98 °C, 0.1 min): 0.000% | weight gain ([2]; under 85% RH): 10%
